Results from patent US5665718A, “Imidazodiazepines” (Hoffmann-La Roche Inc., priority 1994, dated 1997).
Like-named read-outs stand apart in the source and are kept apart here.

Key:
[1] = target: central benzodiazepine receptors; assay: Affinity to central benzodiazepine receptors: inhibition of binding of tritiated flumazenil in rat cortex; conditions: in vitro
Protocol: The affinity of compounds of general formula I to the central benzodiazepine receptors was established in vitro according to the methods described in Nature 294, 763-765 (1981) and J. Neurochemistry 37, 714-722 (1981). According to these methods, the inhibition of the binding of tritiated flumazenil to the specific benzodiazepine receptors in the cortex of rats by the respective test substances is determined. The IC50 ("50% inhibiting concentration") denotes that concentration of the respective test substance which brings about a 50 per cent inhibition of the specific binding of tritiated flumazenil to the specific benzodiazepine receptors in the cortex of rats.

[2] = Rotating rod test (sedative/muscle relaxant properties), i.v.; type: in vivo; conditions: Mus musculus, iv, mice
Protocol: The sedative/muscle relaxant properties of the compounds of formula I in accordance with the invention can be determined, for example, in the rotating rod test. Mice weighing 19-21 g are used for this test. They have free access to feed and drinking water up to 1 hour before the beginning of the test. They are brought into the test laboratory at least 30 minutes before the test. In the rotating rod test the animals are placed on a horizontally arranged, smooth metal rod having a diameter of 3 cm, which is rotated at 2 revolutions per minute. Initially, the animals are given the opportunity of familiarizing themselves with the test situation for 30 seconds. Subsequently, those animals which succeed in remaining on the rod for at least 1 minute are selected. These animals are then given the test preparations intravenously in different dosages. At various points in time it is then determined whether the animals are able to remain on the rod for a minimum period (minimum period: 10 seconds; from 5 minutes after administration: 1 minute.). That dosages at which 50% of the animals are capable of remaining on the rod (ED 50) is determined.

[3] = Fatalities after i.v. administration to mice; type: in vivo; conditions: 32 and 100 mg/kg i.v.
[4] = Fatalities after i.v. administration to rats; type: in vivo; conditions: 32 and 100 mg/kg i.v.
[5] = 15 s, 15 sec after administration, read-out: Rotating rod test, ED50, 15 sec after administration
[6] = 0.5 min, 30 sec after administration, read-out: Rotating rod test, ED50, 30 sec after administration
[7] = 1 min, 60 sec after administration, read-out: Rotating rod test, ED50, 60 sec after administration
[8] = 2 min, 2 min after administration, read-out: Rotating rod test, ED50, 2 min after administration
[9] = 5 min, 5 min after administration, read-out: Rotating rod test, ED50, 5 min after administration
[10] = 0.25 h, 15 min after administration, read-out: Rotating rod test, ED50, 15 min after administration
[11] = 0.5 h, 30 min after administration, read-out: Rotating rod test, ED50, 30 min after administration
[12] = 1 h, 60 min after administration, read-out: Rotating rod test, ED50, 60 min after administration

Structure (SMILES) | IC50 [1] | ED50 [2, 5] | ED50 [2, 6] | ED50 [2, 7] | ED50 [2, 8] | ED50 [2, 9] | ED50 [2, 10] | ED50 [2, 11] | ED50 [2, 12] | fatalities [3] | fatalities [4]
CCN(CC)Cc1nc(-c2ncn3c2[C@@H]2CCN2C(=O)c2sccc2-3)no1 [M, (S)-1-(5-diethylaminomethyl-1,2,4-oxadiazol-3-yl)-11,11a-dihydro-8H,10H-azeto[1,2-a]imidazo[5,1-c]thieno[3,2-e][1,4]diazepin-8-one] | 6.5 nM | 0.2 mg/kg | 0.3 mg/kg | 0.3 mg/kg | 1.1 mg/kg | 2.1 mg/kg | > 10 mg/kg | > 10 mg/kg | > 10 mg/kg | – | –
CCCN(CCC)Cc1nc(-c2ncn3c2CN(C)C(=O)c2c(F)cccc2-3)no1 [J, 7-fluoro-5-methyl-3-(5-dipropylaminomethyl-1,2,4-oxadiazol-3-yl)-5,6-dihydro-4H-imidazo[1,5-a][1,4]benzodiazepin-6-one] | 2.3 nM | 0.1 mg/kg | 0.2 mg/kg | 0.3 mg/kg | 0.4 mg/kg | 1.1 mg/kg | > 10 mg/kg | > 10 mg/kg | > 10 mg/kg | – | –
CCCN(CCC)Cc1nc(-c2ncn3c2CN(C)C(=O)c2cc(F)ccc2-3)no1 [D, 3-(5-dipropylaminomethyl-1,2,4-oxadiazol-3-yl)-8-fluoro-5-methyl-5,6-dihydro-4H-imidazo[1,5-a][1,4]benzodiazepin-6-one] | 3.3 nM | 0.2 mg/kg | 0.2 mg/kg | 0.3 mg/kg | 0.3 mg/kg | 0.8 mg/kg | 2.6 mg/kg | > 10 mg/kg | > 10 mg/kg | without fatalities occurring | without fatalities occurring
CCN(CC)Cc1nc(-c2ncn3c2CN(C)C(=O)c2c(Cl)cccc2-3)no1 [K, 7-chloro-3-(5-diethylaminomethyl-1,2,4-oxadiazol-3-yl)-5-methyl-5,6-dihydro-4H-imidazo[1,5-a][1,4]benzodiazepin-6-one] | 1.4 nM | 0.1 mg/kg | 0.3 mg/kg | 0.3 mg/kg | 0.6 mg/kg | 2 mg/kg | ≥ 10 mg/kg | ≥ 10 mg/kg | ≥ 10 mg/kg | – | –
CCN(CC)Cc1nc(-c2ncn3c2CN(C)C(=O)c2cc(F)ccc2-3)no1 [H, 3-(5-diethylaminomethyl-1,2,4-oxadiazol-3-yl)-8-fluoro-5-methyl-5,6-dihydro-4H-imidazo[1,5-a][1,4]benzodiazepin-6-one] | 25 nM | 0.1 mg/kg | 0.2 mg/kg | 0.4 mg/kg | 0.7 mg/kg | 1.2 mg/kg | 4.3 mg/kg | 5.1 mg/kg | > 10 mg/kg | – | –
C=CCN(CC=C)Cc1nc(-c2ncn3c2[C@@H]2CCN2C(=O)c2c-3ccc(F)c2Cl)no1 [E, (S)-1-(5-diallylaminomethyl-1,2,4-oxadiazol-3-yl)-8-chloro-7-fluoro-12,12a-dihydro-9H,11H-azeto[2,1-c]imidazo[1,5-a][1,4]benzodiazepin-9-one] | 10 nM | 0.2 mg/kg | 0.3 mg/kg | 0.3 mg/kg | 0.4 mg/kg | 0.8 mg/kg | 3.9 mg/kg | ≥ 10 mg/kg | > 10 mg/kg | without fatalities occurring | without fatalities occurring
CCCN(CCC)Cc1nnc(-c2ncn3c2CN(C)C(=O)c2c(Cl)cccc2-3)o1 [L, 7-chloro-3-(5-dipropylaminomethyl-1,3,4-oxadiazol-2-yl)-5-methyl-5,6-dihydro-4H-imidazo[1,5-a][1,4]benzodiazepin-6-one] | 4.5 nM | 0.3 mg/kg | 0.4 mg/kg | 0.6 mg/kg | 1.5 mg/kg | 5 mg/kg | > 10 mg/kg | > 10 mg/kg | > 10 mg/kg | – | –
CCCN(CCC)Cc1nc(-c2ncn3c2[C@@H]2CCN2C(=O)c2c(Cl)cccc2-3)no1 [A, (S)-8-chloro-1-(5-dipropylaminomethyl-1,2,4-oxadiazol-3-yl)-12,12a-dihydro-9H,11H-azeto[2,1-c]imidazo[1,5-a][1,4]benzodiazepin-9-one] | 13 nM | 0.3 mg/kg | 0.3 mg/kg | 0.7 mg/kg | 0.8 mg/kg | 1.4 mg/kg | 2.1 mg/kg | 7.3 mg/kg | > 10 mg/kg | without fatalities occurring | without fatalities occurring
O=C1c2c(Cl)cccc2-n2cnc(-c3noc(CN4CCCCC4)n3)c2[C@@H]2CCN12 [I, (S)-8-chloro-1-[5-(piperidin-1-yl)methyl-1,2,4-oxadiazol-3-yl]-12,12a-dihydro-9H,11H-azeto[2,1-c]imidazo[1,5-a][1,4]benzodiazepin-9-one] | 4.4 nM | 0.1 mg/kg | 0.7 mg/kg | 0.7 mg/kg | 1 mg/kg | 1.1 mg/kg | 3.1 mg/kg | ≥ 10 mg/kg | > 10 mg/kg | – | –
CC(C)N(Cc1nc(-c2ncn3c2CN(C)C(=O)c2cc(F)ccc2-3)no1)C(C)C [P, 3-(5-diisopropylaminomethyl-1,2,4-oxadiazol-3-yl)-8-fluoro-5-methyl-5,6-dihydro-4H-imidazo[1,5-a][1,4]benzodiazepin-6-one] | 4.1 nM | 0.1 mg/kg | 0.2 mg/kg | 0.3 mg/kg | 0.7 mg/kg | 1 mg/kg | 4.3 mg/kg | ≥ 10 mg/kg | > 10 mg/kg | – | –
CC(C)N(Cc1nc(-c2ncn3c2CN(C)C(=O)c2ccccc2-3)no1)C(C)C [O, 3-(5-diisopropylaminomethyl-1,2,4-oxadiazol-3-yl)-5-methyl-5,6-dihydro-4H-imidazo[1,5-a][1,4]benzodiazepin-6-one] | 6.4 nM | 0.3 mg/kg | 0.5 mg/kg | 0.7 mg/kg | 1 mg/kg | 3 mg/kg | > 10 mg/kg | > 10 mg/kg | > 10 mg/kg | – | –
CCCN(CCC)Cc1nc(-c2ncn3c2CN(C)C(=O)c2ccccc2-3)no1 [F, 3-(5-dipropylaminomethyl-1,2,4-oxadiazol-3-yl)-5-methyl-5,6-dihydro-4H-imidazo[1,5-a][1,4]benzodiazepin-6-one] | 6.9 nM | 0.2 mg/kg | 0.4 mg/kg | 0.5 mg/kg | 0.9 mg/kg | ≥ 10 mg/kg | > 10 mg/kg | > 10 mg/kg | > 10 mg/kg | – | –
CN1Cc2c(-c3noc(CN4CCCCC4)n3)ncn2-c2ccc(F)cc2C1=O [C, 8-fluoro-5-methyl-3-[5-(piperidin-1-ylmethyl)-1,2,4-oxadiazol-3-yl]-5,6-dihydro-4H-imidazo[1,5-a][1,4]benzodiazepin-6-one] | 50 nM | 0.8 mg/kg | 0.8 mg/kg | 1.2 mg/kg | 1.6 mg/kg | 3.2 mg/kg | ≥ 10 mg/kg | > 10 mg/kg | > 10 mg/kg | – | –
CCCCN(CCCC)Cc1nnc(-c2ncn3c2[C@@H]2CCN2C(=O)c2sccc2-3)o1 [N, (S)-1-(5-dibutylaminomethyl-1,3,4-oxadiazol-2-yl)-11,11a-dihydro-8H,10H-azeto[1,2-a]imidazo[5,1-c]thieno[3,2-e][1,4]diazepin-8-one] | 4.8 nM | 0.3 mg/kg | 0.3 mg/kg | 0.3 mg/kg | 0.6 mg/kg | 2.4 mg/kg | > 10 mg/kg | > 10 mg/kg | > 10 mg/kg | – | –
CCCN(CCC)Cc1nnc(-c2ncn3c2CN(C)C(=O)c2cc(F)ccc2-3)o1 [G, 3-(5-dipropylaminomethyl-1,3,4-oxadiazol-2-yl)-8-fluoro-5-methyl-5,6-dihydro-4H-imidazo[1,5-c][1,4]benzodiazepin-6-one] | 18.3 nM | 0.3 mg/kg | 0.3 mg/kg | 0.7 mg/kg | 1.1 mg/kg | 3.6 mg/kg | ≥ 10 mg/kg | > 10 mg/kg | > 10 mg/kg | – | –
CCCN(CCC)Cc1nc(-c2ncn3c2[C@@H]2CCN2C(=O)c2sccc2-3)no1 [B, (S)-1-(5-dipropylaminomethyl-1,2,4-oxadiazol-3-yl)-11,11a-dihydro-8H,10H-azeto[1,2-a]imidazo[5,1-c]thieno[3,2-e][1,4]diazepin-8-one] | 4.3 nM | 0.1 mg/kg | 0.1 mg/kg | 0.2 mg/kg | 0.4 mg/kg | 0.7 mg/kg | 3.5 mg/kg | > 10 mg/kg | > 10 mg/kg | without fatalities occurring | without fatalities occurring
